Measured values reported in paper PMC6010047, “Design, synthesis and biological evaluation of novel hydroxy-phenyl-1H-benzimidazoles as radical scavengers and UV-protective agents” (Journal of Enzyme Inhibition and Medicinal Chemistry, 2017).
Read-outs that look alike come from different tables or passages of the source.

Columns and labels:
NCTC-2544 cells [1] = test system: NCTC-2544 cells
NCTC-2544 cells [2] = experiment: Cytotoxicity, MTT test, 72 h; conditions: read-out: IC50 cytotoxicity; NCTC-2544 human keratinocytes, 72 h, MTT
[3] = Photostability of formulations under solar simulator, HPLC; type: physicochemical; conditions: 3% formulation; for Residual product (photostability): 2 mg/cm^2, solar simulator 1 h, HPLC
Protocol: HPLC analysis was performed using an Agilent 1100 Series HPLC System equipped with a G1315A DAD, and with a Hydro-RP C18 Synergi 80 Å column (4.6 × 150 mm, 4 μm) from Phenomenex, maintained at 25 °C during all the time of the analysis. The mobile phase consisted of water (0.01 M H3PO4) (solvent A) and acetonitrile (0.01 M H3PO4) (solvent B). • PBSA and 3: the determination was carried out in isocratic condition, A: 91%/B: 9%. Separation was monitored with absorbance detection at λmax of the molecule ±8 nm. The flow rate was 1.0 mL/min. • […]: the determination was carried out in isocratic condition, A: 84%/B: 16%. Separation was monitored with absorbance detection at λmax of the molecule ±8 nm. The flow rate was 1.0 mL/min
The solar simulator emission was maintained at 500 W/m^2. A portion of cosmetic formulation containing the sunscreen molecule (3%, w/w) was transferred onto the bottom of a beaker to gain a cosmetic mount of 2 mg/cm^2 and then was irradiated for 1 h with the solar simulator. After irradiation the beaker was removed and its content quantitatively transferred into a 50 mL calibrated flask with methanol and the remaining sunscreen concentration was determined by HPLC as described above. All samples were protected from light both before and after irradiation, the degree of photodegradation was evaluated by comparing the areas of the irradiated samples, with those of the unirradiated preparations.
Stability and photostability tests were performed only on compounds that as provided with the best antioxidant capacity together with a good photoprotection activity (i.e. 3, and 12). At first, the effective concentration of filtering molecules was verified in the formulation by HPLC. Samples of the formulations (2 mg/cm^2) were spread on a PMMA plate, for each compound including PBSA, and placed under a solar simulator for one hour before repeating HPLC analysis.

Row | Compound | Residual product (photostability) [3] | also measured
1 | 2-(2,4-Dihydroxy-phenyl)-1H-benzimidazole [Compound 9] |  | IC50 (NCTC-2544 cells [1]): > 50 µM
2 | 2-(2-Hydroxy-phenyl)-1H-benzimidazole [Compound 10] |  | IC50 (NCTC-2544 cells [2]): > 50 µM
3 | O=S(=O)(O)c1ccc2[nH]c(-c3ccc(O)c(O)c3)nc2c1 [Compound 3, 2-(3,4-Dihydroxy-phenyl)-1H-benzimidazole-5-sulfonic acid] | 94.9% ± 0.8% | 
4 | O=C(O)c1ccc2[nH]c(-c3ccc(O)c(O)c3)nc2c1 [Compound 12, 2-(3,4-Dihydroxy-phenyl)-1H-benzimidazole-5-carboxylic acid] | 98.4% ± 0.9% | degradation rate (photostability) ([3]; solar simulator 1 h): less than 2%
5 | O=S(=O)(O)c1ccc2[nH]c(-c3ccccc3)nc2c1 [PBSA, 2-phenyl-1H-benzimidazole-5-sulfonic acid, reference compound] | 96.7% ± 1.8% | 
